# Data from ChEMBL document CHEMBL1201862, “PubChem BioAssay data set” (2004).
# Activity calls are given as the source filed them.
# How the values were obtained:
# [1] = target: Beta-galactosidase (Escherichia coli, UniProt Q8VNN2); assay: Dose response counterscreen for EBI2 assay utilizing the enzyme, b-galactosidase.; format: functional
# [2] = target: Tyrosine-protein phosphatase non-receptor type 11 (Homo sapiens, UniProt Q06124); assay: PTPN11 enzyme inhibitors – biochemical, selectivity assay for STEP inhibitor project, dose response (AID 602367); format: functional; details: read-out: IC50_Mean
# [3] = target: Dual specificity protein phosphatase 3 (Homo sapiens, UniProt P51452); assay: VHR phosphatase inhibition, dose response, selectivity assay for STEP inhibitor project, biochemical (AID 602374); format: functional; details: read-out: IC50_Mean
# [4] = target: Tyrosine-protein phosphatase non-receptor type 5 (Homo sapiens, UniProt P54829); assay: PTPN5 enzyme inhibition – biochemical, fluorescence intensity, uHTS hits, confirmation (AID 602372); format: functional; details: read-out: IC50_Mean
# [5] = target: T1, High affinity choline transporter 1 (Homo sapiens, UniProt Q9GZV3); assay: human choline transporter blockers, potency – cell-based, 10-point CRC, membrane potential dye, dose response (AID 588401); format: functional;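 also: membrane potential dye fluorescence of choline-evoked depolarization via CHT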
# T1 sequence (Q9GZV3 whole entry): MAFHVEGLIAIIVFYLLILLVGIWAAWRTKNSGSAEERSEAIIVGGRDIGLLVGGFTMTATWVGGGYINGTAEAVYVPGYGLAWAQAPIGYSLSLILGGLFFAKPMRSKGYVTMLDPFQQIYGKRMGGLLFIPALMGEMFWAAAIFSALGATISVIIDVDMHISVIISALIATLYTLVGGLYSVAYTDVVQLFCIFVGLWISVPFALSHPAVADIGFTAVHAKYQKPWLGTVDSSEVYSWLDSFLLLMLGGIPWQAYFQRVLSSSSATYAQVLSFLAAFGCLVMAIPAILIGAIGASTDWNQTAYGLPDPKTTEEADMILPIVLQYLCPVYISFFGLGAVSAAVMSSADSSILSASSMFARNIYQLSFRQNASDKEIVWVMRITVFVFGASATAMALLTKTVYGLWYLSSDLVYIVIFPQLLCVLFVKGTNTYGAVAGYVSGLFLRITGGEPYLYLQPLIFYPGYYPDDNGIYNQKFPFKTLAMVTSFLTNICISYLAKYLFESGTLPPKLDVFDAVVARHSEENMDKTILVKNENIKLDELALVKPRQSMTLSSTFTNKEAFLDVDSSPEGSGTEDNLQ
# [6] = target: T1, High affinity choline transporter 1; assay: human choline transporter blockers, potency – cell-based, 5-point CRC, membrane potential dye, dose response (AID 504840); format: functional
# [7] = blockers of CRF-binding protein–CRF-R2 complex – cell-based, uHTS hits, 384-well, dose response (AID 651639); format: functional, Homo sapiens; details: read-out: IC50_Mean
# [8] = target: Low molecular weight phosphotyrosine protein phosphatase (Homo sapiens, UniProt P24666); format: functional; details: read-out: IC50_Mean
# [9] = target: Beta Lactamase (Pseudomonas aeruginosa, UniProt Q932Y6);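 also: confirmatory high-throughput screen measuring VIM-2 metallo-beta-lactamase inhibition by epi-absorbance in dose response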
# [10] = target: Beta-lactamase (Salmonella choleraesuis (strain SC-B67), UniProt Q5J463)
# [11] = target: Beta-lactamase (Pseudomonas aeruginosa, UniProt Q79MP6);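 also: biochemical dose-response test of metallo-beta-lactamase enzyme inhibition, read out by epi-absorbance; purified recombinant IMP-1 metallo-beta-lactamase with nitrocefin as substrate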
# [12] = test system: Streptococcus sp. 'group A'; assay: Streptococcus pyogenes SK(-)GAS viability under kanamycin – luminescence, BacTiterGlo, confirmation, counter-screen for streptokinase expression inhibitor project, dose response (AID 1900); format: functional, organism-based
# [13] = target: Matrix metalloproteinase-14 (Homo sapiens, UniProt P50281); assay: Dose Response confirmation of uHTS hits for a small molecule inhibitors of MT1-MMP activation in a fluorescence assay set 1.; format: functional
# [14] = target: T2, Streptokinase A (Streptococcus pyogenes serotype M1, UniProt P10520); assay: viability-normalized secreted streptokinase activity reduction – plasminogen activation absorbance, OD405, dose response (AID 1914); format: functional, Streptococcus pyogenes M1 GAS;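 also: secreted streptokinase activity via plasminogen activation per viability signal from cell pellet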
# T2 sequence (P10520 whole entry): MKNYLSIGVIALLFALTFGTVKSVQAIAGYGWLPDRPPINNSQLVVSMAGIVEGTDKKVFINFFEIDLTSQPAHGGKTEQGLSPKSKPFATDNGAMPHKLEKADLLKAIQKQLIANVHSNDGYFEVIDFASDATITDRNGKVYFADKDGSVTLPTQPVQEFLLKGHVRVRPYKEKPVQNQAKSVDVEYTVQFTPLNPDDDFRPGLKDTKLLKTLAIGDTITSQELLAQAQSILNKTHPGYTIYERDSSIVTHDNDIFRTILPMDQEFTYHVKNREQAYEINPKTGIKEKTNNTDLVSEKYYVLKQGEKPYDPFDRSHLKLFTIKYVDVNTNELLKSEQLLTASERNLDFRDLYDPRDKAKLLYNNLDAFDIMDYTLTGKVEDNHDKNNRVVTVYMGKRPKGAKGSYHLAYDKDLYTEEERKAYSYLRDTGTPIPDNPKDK
# [15] = test system: Streptococcus; assay: GAS UMAA2166 growth inhibition – luminescence, BacTiterGlo, counter-screen for streptokinase expression inhibitor project, dose response (AID 1915); format: functional, organism-based;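 also: potency for reduction of bacterial viability or growth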
# [16] = target: T3, Endoribonuclease toxin MazF (Escherichia coli K-12, UniProt P0AE70); assay: substrate-only fluorescence increase artefacts – biochemical, single-stranded RNase substrate, counter-screen for MazEF activator project, dose response (AID 588502); format: functional
# T3 sequence (P0AE70 whole entry): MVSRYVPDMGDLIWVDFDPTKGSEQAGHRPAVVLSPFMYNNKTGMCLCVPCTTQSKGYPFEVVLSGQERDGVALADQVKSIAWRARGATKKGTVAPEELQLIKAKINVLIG
# [17] = target: Benomyl/methotrexate resistance protein (Candida albicans, UniProt P28873); assay: Candida albicans Mdr1 pump inhibition curves – singleplex, Cherry Pick1 hits, dose response (AID 588608); format: functional
# [18] = target: T3, Endoribonuclease toxin MazF; assay: activation of MazEF endoribonuclease cleavage – biochemical, fluorescence, single-stranded RNA substrate, uHTS hits, dose response (AID 588481); format: functional
# [19] = Trypanosoma cruzi growth suppression in host cells – NIH3T3 host cells, beta-gal luminescence, confirmation (AID 2044); format: functional, cell-based;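 also: intracellular parasites grown in NIH/3T3 mouse fibroblasts as host cells; luminescent beta-galactosidase reporter signal from transgenic T. cruzi replicating inside host cells; inhibitors lower the luminescence signal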
# [20] = inhibition of ARNT PAS-B/TACC3 complex formation – biochemical, AlphaScreen, cherry-picked samples, confirmation (AID 651703); format: functional, Homo sapiens;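 also: His-tagged ARNT PAS-B domain paired with GST-TACC3 E629A dimer coactivator fragment; potency of inhibitors that break up the complex and lower AlphaScreen signal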
# [21] = target: T4, Caspase-6 (Homo sapiens, UniProt P55212); assay: inhibition of CASP6 peptide cleavage – biochemical, VEID-R110 fluorescence, cherry-pick, dose response (AID 720632)
# T4 sequence (P55212 whole entry): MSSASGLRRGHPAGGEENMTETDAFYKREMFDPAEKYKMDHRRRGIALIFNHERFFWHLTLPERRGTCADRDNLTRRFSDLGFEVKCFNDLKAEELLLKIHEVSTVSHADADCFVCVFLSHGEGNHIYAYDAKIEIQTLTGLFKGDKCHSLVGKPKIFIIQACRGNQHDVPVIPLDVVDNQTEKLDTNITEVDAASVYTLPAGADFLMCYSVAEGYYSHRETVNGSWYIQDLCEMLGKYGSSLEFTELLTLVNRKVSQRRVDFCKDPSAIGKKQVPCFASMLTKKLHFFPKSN
# [22] = target: T5, Carboxy-terminal domain RNA polymerase II polypeptide A small phosphatase 1 (Homo sapiens, UniProt Q9GZU7); assay: CTDSP1 inhibitors, concentration-response, biochemical, absorbance readout, ultra-high-throughput screen actives (AID 540297); format: functional
# T5 sequence (Q9GZU7 whole entry): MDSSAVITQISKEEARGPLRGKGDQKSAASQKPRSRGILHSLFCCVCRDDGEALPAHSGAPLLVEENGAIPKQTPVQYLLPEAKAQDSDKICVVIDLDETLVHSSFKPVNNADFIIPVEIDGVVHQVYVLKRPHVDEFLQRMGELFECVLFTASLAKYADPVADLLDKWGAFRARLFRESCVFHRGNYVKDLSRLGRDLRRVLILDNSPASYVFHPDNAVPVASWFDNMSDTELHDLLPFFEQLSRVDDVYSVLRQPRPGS
# [23] = bead-based luminescence quenchers, dual-tagged ARNT – biochemical, AlphaScreen, cherry-pick, artefact control for ARNT-TACC3 interaction inhibitor project, dose response (AID 651705); format: functional;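 also: AlphaScreen bead proximity signal that flags compounds interfering with the detection technology; potency reflects signal decrease which marks the compound as an assay artifact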
# [24] = NIH3T3 cell viability loss – ATP luminescence, mouse fibroblasts, counter-screen, dose response (AID 2010); format: functional, cell-based;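 also: cells exposed to compound for about 90 hours before reading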
# [25] = target: Potassium voltage-gated channel subfamily KQT member 2 (Rattus norvegicus, UniProt O88943); assay: blockers of KCNQ2 channel current – cell-based, automated electrophysiology, set II, rat KCNQ2, dose response (AID 588637); format: functional
# [26] = target: T6, Interleukin-8 (Homo sapiens, UniProt P10145); assay: Dose Response confirmation of uHTS small molecule hits for cystic fibrosis induced NFkb Inhibitors in a PAF-induced IL8 counterscreen.; format: functional; details: read-out: IC50_Mean
# [27] = target: T6, Interleukin-8; assay: Dose Response confirmation of uHTS small molecule hits for cystic fibrosis induced NFkb Inhibitors in a TNFa-induced IL8 counterscreen.; format: functional; details: read-out: IC50_Mean
# [28] = test system: HEK293; assay: EBV LMP1 TES2 canonical NF-kB signalling blockers – cell-based, HEK293, luciferase, cherry-pick, dose response (AID 588343); format: functional; details: Homo sapiens
# [29] = target: Botulinum neurotoxin type F (Clostridium botulinum, UniProt P30996); assay: High-throughput multiplex microsphere dose response for inhibitors of toxin protease, specifically Botulinum neurotoxin light chain F protease, compounds from Cherry Pick 02.; format: functional; details: read-out: EC50_MICROM
# [30] = target: Botulinum neurotoxin type A (Clostridium botulinum (strain Hall / ATCC 3502 / NCTC 13319 / Type A), UniProt P0DPI1); assay: High-throughput multiplex microsphere dose response for inhibitors of toxin protease, specifically Botulinum neurotoxin light chain A protease, compounds from Powder Set 01.; format: functional, Clostridium botulinum A str. ATCC 3502; details: read-out: EC50_MICROM
# [31] = target: Lethal factor (Bacillus anthracis, UniProt P15917); assay: High-throughput multiplex microsphere dose response for inhibitors of toxin protease, specifically Lethal Factor protease, compounds from Powder Set 01.; format: functional, Bacillus anthracis str. A2012; details: read-out: EC50_MICROM
# [32] = inhibitors of EBV LMP1 NF-kappaB signaling – cell-based, luciferase reporter, luminescence, dry powder, set 2, dose response (AID 624376); format: functional
# T6 sequence (P10145 whole entry): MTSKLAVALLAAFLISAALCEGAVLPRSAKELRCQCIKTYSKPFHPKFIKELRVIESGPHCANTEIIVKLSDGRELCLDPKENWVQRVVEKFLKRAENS
# Tyrosine-protein phosphatase non-receptor type 11, sequence (Q06124 whole entry): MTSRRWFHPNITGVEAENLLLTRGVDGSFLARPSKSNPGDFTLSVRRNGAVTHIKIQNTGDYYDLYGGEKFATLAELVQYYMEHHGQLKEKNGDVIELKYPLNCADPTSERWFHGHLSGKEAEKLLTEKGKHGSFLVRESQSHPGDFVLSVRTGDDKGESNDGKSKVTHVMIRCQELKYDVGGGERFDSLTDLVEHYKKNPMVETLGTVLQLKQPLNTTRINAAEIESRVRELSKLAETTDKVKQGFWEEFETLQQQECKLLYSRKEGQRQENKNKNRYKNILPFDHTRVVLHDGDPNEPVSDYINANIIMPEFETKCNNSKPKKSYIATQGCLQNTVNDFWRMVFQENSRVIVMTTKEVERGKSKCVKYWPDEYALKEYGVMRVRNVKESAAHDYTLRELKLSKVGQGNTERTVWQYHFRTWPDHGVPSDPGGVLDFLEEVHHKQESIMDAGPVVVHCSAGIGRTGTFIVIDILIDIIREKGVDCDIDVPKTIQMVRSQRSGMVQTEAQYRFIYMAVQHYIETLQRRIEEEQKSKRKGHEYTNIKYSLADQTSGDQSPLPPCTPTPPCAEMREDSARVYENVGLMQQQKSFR
# Beta-lactamase (Pseudomonas aeruginosa, UniProt Q79MP6), sequence (Q79MP6 whole entry): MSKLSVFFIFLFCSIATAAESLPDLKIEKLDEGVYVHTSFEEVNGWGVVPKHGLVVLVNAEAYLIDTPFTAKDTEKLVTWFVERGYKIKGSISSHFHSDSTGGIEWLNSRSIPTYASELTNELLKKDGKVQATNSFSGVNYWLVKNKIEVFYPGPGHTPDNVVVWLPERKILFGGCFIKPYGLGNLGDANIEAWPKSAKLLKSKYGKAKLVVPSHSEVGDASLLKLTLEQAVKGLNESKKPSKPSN
# Benomyl/methotrexate resistance protein, sequence (P28873 whole entry): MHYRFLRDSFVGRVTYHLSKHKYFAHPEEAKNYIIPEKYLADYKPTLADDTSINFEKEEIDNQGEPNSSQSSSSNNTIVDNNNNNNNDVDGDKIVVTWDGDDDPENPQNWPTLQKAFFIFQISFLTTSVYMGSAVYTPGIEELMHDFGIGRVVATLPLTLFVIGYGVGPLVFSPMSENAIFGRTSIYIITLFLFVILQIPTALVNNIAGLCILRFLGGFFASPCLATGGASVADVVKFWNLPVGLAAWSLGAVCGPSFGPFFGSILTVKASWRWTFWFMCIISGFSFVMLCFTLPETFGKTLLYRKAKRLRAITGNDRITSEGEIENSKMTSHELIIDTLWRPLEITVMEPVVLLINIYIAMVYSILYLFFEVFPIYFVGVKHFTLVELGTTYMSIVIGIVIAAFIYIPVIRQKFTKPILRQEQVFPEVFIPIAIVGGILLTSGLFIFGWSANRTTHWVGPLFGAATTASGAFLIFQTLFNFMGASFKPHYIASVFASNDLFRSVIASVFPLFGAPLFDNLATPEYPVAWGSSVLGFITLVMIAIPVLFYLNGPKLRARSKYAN
# Potassium voltage-gated channel subfamily KQT member 2, sequence (O88943 whole entry): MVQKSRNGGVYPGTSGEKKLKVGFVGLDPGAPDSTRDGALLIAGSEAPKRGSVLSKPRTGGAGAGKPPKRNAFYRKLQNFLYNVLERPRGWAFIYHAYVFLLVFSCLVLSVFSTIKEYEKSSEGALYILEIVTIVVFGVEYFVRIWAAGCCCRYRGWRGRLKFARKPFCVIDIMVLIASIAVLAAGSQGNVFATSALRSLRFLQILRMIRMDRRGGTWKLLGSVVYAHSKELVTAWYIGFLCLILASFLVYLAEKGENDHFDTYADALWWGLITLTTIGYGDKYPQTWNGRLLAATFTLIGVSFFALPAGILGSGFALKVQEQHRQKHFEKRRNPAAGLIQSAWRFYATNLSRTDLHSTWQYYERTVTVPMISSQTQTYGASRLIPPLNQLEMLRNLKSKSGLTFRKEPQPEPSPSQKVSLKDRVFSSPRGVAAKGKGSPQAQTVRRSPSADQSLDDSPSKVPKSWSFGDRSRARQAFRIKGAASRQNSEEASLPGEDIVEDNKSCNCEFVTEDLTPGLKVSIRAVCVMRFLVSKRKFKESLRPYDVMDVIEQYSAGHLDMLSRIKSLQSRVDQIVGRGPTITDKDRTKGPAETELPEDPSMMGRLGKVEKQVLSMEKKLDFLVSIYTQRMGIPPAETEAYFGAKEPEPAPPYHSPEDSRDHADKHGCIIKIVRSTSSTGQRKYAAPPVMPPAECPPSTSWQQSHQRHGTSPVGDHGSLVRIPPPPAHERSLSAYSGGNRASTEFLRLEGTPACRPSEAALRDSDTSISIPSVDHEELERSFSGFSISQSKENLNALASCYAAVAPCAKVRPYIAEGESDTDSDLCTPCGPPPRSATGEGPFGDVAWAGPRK
# Beta-galactosidase, sequence (Q8VNN2 whole entry): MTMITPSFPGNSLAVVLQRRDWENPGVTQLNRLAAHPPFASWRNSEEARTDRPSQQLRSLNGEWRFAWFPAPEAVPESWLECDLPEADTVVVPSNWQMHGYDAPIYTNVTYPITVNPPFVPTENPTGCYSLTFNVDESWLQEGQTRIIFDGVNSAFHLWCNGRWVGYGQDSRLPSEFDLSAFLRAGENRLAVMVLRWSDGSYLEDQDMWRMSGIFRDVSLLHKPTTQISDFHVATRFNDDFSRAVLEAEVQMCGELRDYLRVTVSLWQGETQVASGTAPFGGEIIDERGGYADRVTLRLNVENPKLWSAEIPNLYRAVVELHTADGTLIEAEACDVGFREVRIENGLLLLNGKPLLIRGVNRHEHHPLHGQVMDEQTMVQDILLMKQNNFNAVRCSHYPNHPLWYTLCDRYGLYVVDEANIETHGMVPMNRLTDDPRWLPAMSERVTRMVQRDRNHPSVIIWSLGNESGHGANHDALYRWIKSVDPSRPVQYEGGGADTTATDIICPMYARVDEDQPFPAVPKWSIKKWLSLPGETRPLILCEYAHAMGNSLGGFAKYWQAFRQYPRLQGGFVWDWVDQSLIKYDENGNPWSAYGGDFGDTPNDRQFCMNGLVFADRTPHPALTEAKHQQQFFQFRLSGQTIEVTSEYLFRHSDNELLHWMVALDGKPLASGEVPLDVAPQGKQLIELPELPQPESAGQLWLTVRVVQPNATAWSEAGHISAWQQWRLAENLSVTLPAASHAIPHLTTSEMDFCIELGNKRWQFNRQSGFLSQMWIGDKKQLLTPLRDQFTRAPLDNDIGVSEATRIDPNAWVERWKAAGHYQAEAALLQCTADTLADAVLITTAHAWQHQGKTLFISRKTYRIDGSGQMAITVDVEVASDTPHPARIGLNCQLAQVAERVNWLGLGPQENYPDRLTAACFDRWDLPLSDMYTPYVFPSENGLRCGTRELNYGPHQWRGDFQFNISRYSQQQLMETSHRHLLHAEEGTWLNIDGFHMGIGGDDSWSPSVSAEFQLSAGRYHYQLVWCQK
# Beta-lactamase (Salmonella choleraesuis (strain SC-B67), UniProt Q5J463), sequence (Q5J463 whole entry): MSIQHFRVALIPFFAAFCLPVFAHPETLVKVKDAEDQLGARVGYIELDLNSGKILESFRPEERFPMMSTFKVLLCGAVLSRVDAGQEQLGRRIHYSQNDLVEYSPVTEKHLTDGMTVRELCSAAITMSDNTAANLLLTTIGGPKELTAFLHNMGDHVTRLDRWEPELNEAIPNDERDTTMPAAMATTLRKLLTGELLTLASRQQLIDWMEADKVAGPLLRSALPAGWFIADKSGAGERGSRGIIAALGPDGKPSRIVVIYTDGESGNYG
# Lethal factor, sequence (P15917 whole entry): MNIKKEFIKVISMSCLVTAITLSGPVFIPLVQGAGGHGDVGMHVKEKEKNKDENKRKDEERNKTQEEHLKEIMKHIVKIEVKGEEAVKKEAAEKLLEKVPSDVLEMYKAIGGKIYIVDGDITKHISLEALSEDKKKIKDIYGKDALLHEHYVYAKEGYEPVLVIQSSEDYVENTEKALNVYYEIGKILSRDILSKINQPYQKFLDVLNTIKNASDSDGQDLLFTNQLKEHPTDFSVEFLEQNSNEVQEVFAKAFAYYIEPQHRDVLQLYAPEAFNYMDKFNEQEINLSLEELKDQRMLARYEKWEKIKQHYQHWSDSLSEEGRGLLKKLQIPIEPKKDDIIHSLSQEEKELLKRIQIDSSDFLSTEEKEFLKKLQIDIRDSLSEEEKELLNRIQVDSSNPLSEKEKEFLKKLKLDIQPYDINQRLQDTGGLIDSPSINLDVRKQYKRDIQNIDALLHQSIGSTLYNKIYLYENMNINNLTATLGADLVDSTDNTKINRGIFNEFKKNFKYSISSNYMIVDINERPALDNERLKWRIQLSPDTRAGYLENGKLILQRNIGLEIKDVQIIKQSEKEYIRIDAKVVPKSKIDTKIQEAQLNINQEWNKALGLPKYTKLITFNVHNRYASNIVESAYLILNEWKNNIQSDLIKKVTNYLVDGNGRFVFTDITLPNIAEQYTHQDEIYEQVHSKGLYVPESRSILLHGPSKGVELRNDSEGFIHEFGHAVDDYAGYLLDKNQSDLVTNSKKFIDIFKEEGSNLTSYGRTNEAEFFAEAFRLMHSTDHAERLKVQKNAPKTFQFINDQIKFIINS
# Botulinum neurotoxin type F, sequence (P30996 1-436 limits assumed): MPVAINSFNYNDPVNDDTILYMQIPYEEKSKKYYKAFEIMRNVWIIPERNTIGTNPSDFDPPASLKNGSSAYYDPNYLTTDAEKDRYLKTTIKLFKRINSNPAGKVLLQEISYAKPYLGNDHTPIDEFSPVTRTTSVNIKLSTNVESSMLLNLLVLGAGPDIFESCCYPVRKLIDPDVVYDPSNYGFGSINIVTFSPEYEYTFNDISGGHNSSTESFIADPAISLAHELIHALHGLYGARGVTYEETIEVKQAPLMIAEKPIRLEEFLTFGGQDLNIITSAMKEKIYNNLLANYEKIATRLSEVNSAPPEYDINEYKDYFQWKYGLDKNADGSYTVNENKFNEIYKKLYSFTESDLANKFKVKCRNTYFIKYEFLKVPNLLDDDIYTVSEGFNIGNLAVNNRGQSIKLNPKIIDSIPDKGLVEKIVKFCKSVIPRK
compound,measurement,setting,value
O=C(/C=C/c1ccc(Cl)cc1)N1CCN(Cc2ccccc2)CC1,IC50,[1],> 80 µM (inactive)
Cc1ccc(NC(=O)CN2C(=O)S/C(=C\c3ccc(OCC(=O)O)c(Br)c3)C2=O)cc1,IC50,[2],6.33 µM (active)
same,IC50,[3],6.91 µM (active)
same,IC50,[4],> 80 µM (inactive)
CC(=O)OC1CC2(C)C(=O)CCC2C2CCc3cc(O)ccc3C12 (centres undefined),IC50,[5],3.36 µM (active)
same,IC50,[6],9.28 µM (active)
Cc1sc2nc(CN(Cc3cccs3)C(=O)NC3CCCCC3)nc(O)c2c1C,IC50,[7],19.7 µM (active)
O=C(O)[C@@H]1[C@H]2C[C@H]3c4[nH]c5ccccc5c4CCN3C[C@@H]2CC[C@@H]1O,IC50,[8],67.6 µM (inactive)
CC(=O)N(c1cccc(C)c1)C1SC(=O)N(c2ccccc2)C1=O (centres undefined),IC50,[9],54.3 µM (inactive)
same,IC50,[10],> 59.6 µM (inactive)
same,IC50,[11],30.8 µM (inactive)
N#CC(C#N)=NNc1ccc([N+](=O)[O-])cc1,EC50,[12],3.82 µM (active)
same,IC50,[13],32.3 µM (inactive)
same,EC50,[14],> 150 µM (not active)
same,EC50,[15],9.99 µM (active)
COc1ccc(/C=C2\SC(c3ccc(C)cc3)=NC2=O)cc1OC,EC50,[16],> 99 µM (inactive)
same,EC50,[17],5.12 µM (active)
same,EC50,[18],> 99 µM (inactive)
COc1ccc(CC(=O)Nc2ncc([N+](=O)[O-])s2)cc1OC,EC50,[19],1.27 µM (active)
same,AC50,[20],112 µM (active)
same,AC50,[21],2.89 µM (active)
same,IC50,[22],3.21 µM (active)
same,AC50,[23],117 µM (active)
same,EC50,[24],> 60 µM (not active)
O=C(CN1C(=O)C(c2ccccc2)Oc2cccnc21)NCc1ccccc1F (centres undefined),IC50,[25],1.81 µM (active)
O=C(Nc1ccc(C(=O)N2CCOCC2)cc1)Nc1cccc(C(F)(F)F)c1,IC50,[26],41.9 µM (inactive)
same,IC50,[27],> 79 µM (inactive)
same,AC50,[28],3.04 µM (active)
O=C(C[n+]1cccc(Br)c1)c1ccccc1,IC50,[5],2.84 µM (active)
same,IC50,[6],3.23 µM (active)
Cc1cc2nc(-c3cccc(Br)c3)c(Cc3cccc(Cl)c3)n2c(C)c1Br,EC50,[29],> 20 µM (inactive)
COc1ccc(-c2cn3nc(-c4ccccc4)c(-c4ccccc4)nc3n2)cc1,EC50,[30],4 µM (active)
same,EC50,[31],3.3 µM (active)
O=C(Cc1ccccn1)NCC[C@H]1CC[C@H](NC(=O)Nc2ccc(Cl)cc2)[C@H](CO)O1,AbsAC35,[32],142.06 µM
